Measurements taken from patent US20020187514A1 (priority 1999, published 2002).
Where a name gives a salt, the structure may show the parent alone.

What was measured:
[1] = target: Adenosine Transport (cs + es); assay: Adenosine Transport (cs + es) (Human); [3H]-Adenosine; type: biochemical; settings: reference compound, QA/QC; read-out: Ref Kj
[2] = target: Glutamate, NMDA Agonist Site; assay: Glutamate, NMDA Agonist Site; [3H]CGP 39653; type: binding; settings: reference compound, QA/QC; read-out: Ref Kj
[3] = target: Oxytocin; type: binding; settings: read-out: Ref Kj
[4] = target: T1, Thromboxane A2 (Homo sapiens, UniProt P21731); assay: Thromboxane A2 (Human); [3H]SQ 29,548; type: binding; settings: reference compound, QA/QC; read-out: Ref Kj
T1 construct: from human cell lines; endogenous in cells
T1 sequence (P21731 whole entry): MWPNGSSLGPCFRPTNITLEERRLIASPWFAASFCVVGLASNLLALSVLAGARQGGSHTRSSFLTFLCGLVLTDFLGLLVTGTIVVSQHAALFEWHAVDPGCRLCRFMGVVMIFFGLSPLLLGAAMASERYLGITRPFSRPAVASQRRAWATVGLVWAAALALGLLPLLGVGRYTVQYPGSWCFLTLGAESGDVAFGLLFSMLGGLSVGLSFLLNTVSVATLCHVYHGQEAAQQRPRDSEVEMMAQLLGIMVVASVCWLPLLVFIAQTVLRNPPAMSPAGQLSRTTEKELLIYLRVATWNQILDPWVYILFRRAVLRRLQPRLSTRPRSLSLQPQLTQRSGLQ

[5] = target: T2, Sigma 1 (Cavia porcellus, UniProt Q60492); assay: Sigma 1; [3H]-(+)-Pentazocine; type: binding, guinea pig; settings: reference compound, QA/QC; read-out: Ref Kj
T2 construct: Fresh guinea pig whole brain was obtained following decapitation; from tissue; host or cells: guinea pig whole brain membranes
T2 sequence (Q60492 whole entry): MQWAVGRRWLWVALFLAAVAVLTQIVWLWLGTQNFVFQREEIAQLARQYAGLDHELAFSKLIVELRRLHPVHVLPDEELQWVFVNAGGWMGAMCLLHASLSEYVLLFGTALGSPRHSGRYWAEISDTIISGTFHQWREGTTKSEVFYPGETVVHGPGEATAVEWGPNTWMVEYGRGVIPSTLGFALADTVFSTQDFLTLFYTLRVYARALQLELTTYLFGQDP

[6] = target: T3, Monoamine Oxidase A, Peripheral (Rattus norvegicus, UniProt P21396); assay: biochemical; settings: reference compound, QA/QC; read-out: Ref Kj
T3 construct: no other source notation after assay name denotes animal cell or animal tissue source; from tissue
T3 sequence (P21396 whole entry, looked up): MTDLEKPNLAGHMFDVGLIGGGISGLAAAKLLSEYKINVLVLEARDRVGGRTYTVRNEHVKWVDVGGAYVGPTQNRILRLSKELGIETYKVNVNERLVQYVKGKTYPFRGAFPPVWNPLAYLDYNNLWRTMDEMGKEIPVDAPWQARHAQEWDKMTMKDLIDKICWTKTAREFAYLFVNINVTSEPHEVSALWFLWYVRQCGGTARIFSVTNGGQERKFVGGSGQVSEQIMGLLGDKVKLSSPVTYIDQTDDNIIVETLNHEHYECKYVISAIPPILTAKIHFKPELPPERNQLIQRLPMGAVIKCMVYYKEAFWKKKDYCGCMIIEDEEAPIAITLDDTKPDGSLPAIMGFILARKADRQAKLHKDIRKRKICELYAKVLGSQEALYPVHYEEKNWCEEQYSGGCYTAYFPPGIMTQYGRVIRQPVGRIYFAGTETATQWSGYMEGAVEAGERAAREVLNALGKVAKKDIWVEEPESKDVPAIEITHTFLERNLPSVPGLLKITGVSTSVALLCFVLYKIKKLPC

[7] = target: Somatostatin, Non-selective; assay: Somatostatin, Non-selective; [125]-Somatostatin-14 (Tyr11); type: binding; settings: reference compound, QA/QC; read-out: Ref Kj
[8] = target: T4, Elastase (Homo sapiens, UniProt P08246); assay: Elastase (Human); substrate MeO-Suc-Ala-Ala-Pro-Val-pNA; type: biochemical; settings: reference compound, QA/QC; read-out: Ref Kj
T4 construct: from human cell lines; endogenous in cells
T4 sequence (P08246 30-267): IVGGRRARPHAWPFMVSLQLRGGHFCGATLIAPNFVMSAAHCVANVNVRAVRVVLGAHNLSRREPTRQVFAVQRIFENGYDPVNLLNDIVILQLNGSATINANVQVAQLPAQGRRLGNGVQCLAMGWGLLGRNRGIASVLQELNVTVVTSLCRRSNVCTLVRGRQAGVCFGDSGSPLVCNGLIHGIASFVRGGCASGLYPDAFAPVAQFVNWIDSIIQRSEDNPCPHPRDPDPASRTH

[9] = target: Serotonin, 5HT3 (Mus musculus, UniProt P23979); assay: biochemical; type: binding; settings: radioligand, assay parameter; read-out: KD of the 5HT3 receptor for the radioligand
Chain of Serotonin, 5HT3 (P23979 24-489): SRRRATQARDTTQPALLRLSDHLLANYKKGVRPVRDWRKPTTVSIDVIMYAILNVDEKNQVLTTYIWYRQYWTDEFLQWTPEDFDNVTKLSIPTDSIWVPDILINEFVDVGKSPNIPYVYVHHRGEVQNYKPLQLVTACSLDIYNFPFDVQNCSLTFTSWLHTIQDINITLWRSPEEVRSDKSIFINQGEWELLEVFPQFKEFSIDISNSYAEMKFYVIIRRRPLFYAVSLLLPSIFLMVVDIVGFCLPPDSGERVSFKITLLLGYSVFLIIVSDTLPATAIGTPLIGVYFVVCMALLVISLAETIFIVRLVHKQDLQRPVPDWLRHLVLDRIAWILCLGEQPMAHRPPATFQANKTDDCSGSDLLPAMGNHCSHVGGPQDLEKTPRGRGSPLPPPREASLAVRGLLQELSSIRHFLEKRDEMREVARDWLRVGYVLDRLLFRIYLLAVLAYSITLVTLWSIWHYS

[10] = target: Dopamine Transporter (Cavia porcellus, UniProt H0WCX4); assay: biochemical; type: binding, Guinea Pig; settings: read-out: Kd for the receptor
Chain of Dopamine Transporter (H0WCX4 1-619): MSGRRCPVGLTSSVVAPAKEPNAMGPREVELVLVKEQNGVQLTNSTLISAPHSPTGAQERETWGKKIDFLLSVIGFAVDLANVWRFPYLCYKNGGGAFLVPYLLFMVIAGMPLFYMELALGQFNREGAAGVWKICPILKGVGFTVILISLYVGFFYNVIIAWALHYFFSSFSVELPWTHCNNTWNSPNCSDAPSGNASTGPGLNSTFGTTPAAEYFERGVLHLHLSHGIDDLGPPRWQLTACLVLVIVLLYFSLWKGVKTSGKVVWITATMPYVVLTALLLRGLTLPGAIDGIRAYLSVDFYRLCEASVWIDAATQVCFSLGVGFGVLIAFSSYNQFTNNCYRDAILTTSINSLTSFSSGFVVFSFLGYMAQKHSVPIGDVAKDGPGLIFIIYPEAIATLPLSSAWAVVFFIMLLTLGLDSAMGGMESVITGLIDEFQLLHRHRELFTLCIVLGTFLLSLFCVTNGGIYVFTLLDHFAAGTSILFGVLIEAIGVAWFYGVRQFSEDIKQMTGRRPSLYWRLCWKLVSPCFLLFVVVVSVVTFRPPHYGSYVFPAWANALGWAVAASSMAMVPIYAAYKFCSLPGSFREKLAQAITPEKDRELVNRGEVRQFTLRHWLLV

[11] = target: Choline Acetyltransferase; assay: Choline Acetyltransferase; substrate [14C]Acetyl Coenzyme; type: biochemical; settings: reference compound, QA/QC; read-out: Ref Kj
[12] = target: Thyrotropin Releasing Hormone, TRH; assay: Thyrotropin Releasing Hormone, TRH; [3H]-(3MeHis2)TRH; type: binding; settings: reference compound, QA/QC; read-out: Ref Kj
[13] = target: Glutamate, MK-801 Site; assay: Glutamate, MK-801 Site; [3H]MK-801; type: binding; settings: reference compound, QA/QC; read-out: Ref Kj
[14] = target: Glutamate, NMDA, Phencyclidine Site; assay: Glutamate, NMDA, Phencyclidine Site; [3H]TCP; type: binding; settings: reference compound, QA/QC; read-out: Ref Kj
[15] = target: Vasopressin, V1A (Homo sapiens, UniProt P37288); assay: Vasopressin, V1A (Human); [125I]-Via Antagonist; type: binding; settings: read-out: Ref Kj
Chain of Vasopressin, V1A (P37288 whole entry): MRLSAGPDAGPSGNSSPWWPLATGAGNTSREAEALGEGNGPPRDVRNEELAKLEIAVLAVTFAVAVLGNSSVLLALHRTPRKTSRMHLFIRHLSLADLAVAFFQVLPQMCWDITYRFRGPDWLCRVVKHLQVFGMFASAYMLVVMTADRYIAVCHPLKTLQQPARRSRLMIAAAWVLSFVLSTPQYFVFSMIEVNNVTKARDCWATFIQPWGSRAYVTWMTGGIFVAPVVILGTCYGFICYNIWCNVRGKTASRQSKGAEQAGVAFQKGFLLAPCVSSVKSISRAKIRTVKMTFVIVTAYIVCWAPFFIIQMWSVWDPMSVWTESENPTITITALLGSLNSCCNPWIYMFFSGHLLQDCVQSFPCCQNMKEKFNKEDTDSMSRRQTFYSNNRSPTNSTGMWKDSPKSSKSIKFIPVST

[16] = target: Protein Phosphatase, PP2B (Calcineurin); assay: Protein Phosphatase, PP2B (Calcineurin); substrate pNPP; type: biochemical; settings: read-out: Ref Kj
[17] = target: Protein Tyrosine Phosphatase, PTP-B; assay: Protein Tyrosine Phosphatase, PTP-B (Human); substrate pNPP; type: biochemical; settings: read-out: Ref Kj
[18] = target: Protein Tyrosine Phosphatase, PTP-CD45 (Homo sapiens, UniProt P08575); assay: Protein Tyrosine Phosphatase, PTP-CD45 (Human); substrate pNPP; type: biochemical; settings: read-out: Ref Kj
Chain of Protein Tyrosine Phosphatase, PTP-CD45 (P08575 26-1306): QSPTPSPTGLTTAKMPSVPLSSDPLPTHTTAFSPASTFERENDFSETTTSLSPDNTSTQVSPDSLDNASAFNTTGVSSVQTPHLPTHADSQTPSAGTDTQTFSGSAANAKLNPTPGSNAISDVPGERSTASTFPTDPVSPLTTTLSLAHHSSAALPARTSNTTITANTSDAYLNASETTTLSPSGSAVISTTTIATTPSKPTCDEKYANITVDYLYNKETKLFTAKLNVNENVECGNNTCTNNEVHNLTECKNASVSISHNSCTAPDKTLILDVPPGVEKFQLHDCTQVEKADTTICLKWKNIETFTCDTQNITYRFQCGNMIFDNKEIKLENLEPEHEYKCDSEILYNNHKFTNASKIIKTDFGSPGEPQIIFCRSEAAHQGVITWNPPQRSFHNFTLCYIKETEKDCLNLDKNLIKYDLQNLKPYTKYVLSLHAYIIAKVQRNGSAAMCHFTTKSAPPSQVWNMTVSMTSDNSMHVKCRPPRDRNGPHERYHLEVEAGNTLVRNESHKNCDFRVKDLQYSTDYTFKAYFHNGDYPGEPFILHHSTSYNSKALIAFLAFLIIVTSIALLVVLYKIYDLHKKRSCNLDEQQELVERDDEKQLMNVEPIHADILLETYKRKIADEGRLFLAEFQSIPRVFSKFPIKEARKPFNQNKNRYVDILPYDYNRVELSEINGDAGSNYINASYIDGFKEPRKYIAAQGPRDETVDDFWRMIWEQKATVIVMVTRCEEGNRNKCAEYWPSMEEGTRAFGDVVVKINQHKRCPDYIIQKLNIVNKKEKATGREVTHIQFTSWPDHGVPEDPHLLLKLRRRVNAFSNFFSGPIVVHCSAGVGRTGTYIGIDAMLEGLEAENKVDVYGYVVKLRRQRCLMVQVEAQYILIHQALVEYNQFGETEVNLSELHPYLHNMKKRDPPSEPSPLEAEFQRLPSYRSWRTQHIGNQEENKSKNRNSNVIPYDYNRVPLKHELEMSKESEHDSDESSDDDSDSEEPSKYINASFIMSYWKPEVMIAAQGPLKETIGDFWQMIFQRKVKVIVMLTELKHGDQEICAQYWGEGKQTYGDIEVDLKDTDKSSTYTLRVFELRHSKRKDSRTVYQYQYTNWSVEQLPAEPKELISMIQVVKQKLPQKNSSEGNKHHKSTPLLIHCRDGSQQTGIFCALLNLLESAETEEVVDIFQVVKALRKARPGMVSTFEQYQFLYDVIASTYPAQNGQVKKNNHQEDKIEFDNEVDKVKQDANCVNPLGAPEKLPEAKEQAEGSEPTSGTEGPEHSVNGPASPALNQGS

[19] = target: T5, Protein Tyrosine Phosphatase, PTP-LAR-D1 (Homo sapiens, UniProt P10586); assay: Protein Tyrosine Phosphatase, PTP-LAR-D1 (Human); substrate pNPP; type: biochemical; settings: read-out: Ref Kj
T5 construct: PTP-LAR-D1
T5 sequence (P10586 1352-1607): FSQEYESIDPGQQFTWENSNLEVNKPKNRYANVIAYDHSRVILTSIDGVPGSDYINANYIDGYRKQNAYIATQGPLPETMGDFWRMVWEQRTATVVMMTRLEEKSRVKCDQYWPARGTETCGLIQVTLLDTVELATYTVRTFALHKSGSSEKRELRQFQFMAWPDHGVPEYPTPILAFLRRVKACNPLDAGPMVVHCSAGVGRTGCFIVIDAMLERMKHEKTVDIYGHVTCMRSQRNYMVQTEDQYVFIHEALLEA

[20] = test system: Protein Tyrosine Phosphatase, PTP-Cell; assay: Protein Tyrosine Phosphatase, PTP-Cell (Human); substrate pNPP; type: biochemical; settings: read-out: Ref Kj
[21] = target: Angiotensin II, AT2; type: binding; settings: read-out: Ref Kj
[22] = target: Cholecystokinin, CCK1 (CCKA); assay: Cholecystokinin, CCK1 (CCKA); [125I]CCK-8; type: binding; settings: read-out: Ref Kj
[23] = target: Cholecystokinin, CCK2 (CCKB); assay: Cholecystokinin, CCK2 (CCKB); [125I]CCK-8; type: binding; settings: read-out: Ref Kj
[24] = target: Protein Phosphatase, PP2A (Homo sapiens, UniProt P67775); assay: Protein Phosphatase, PP2A (Human); substrate DiFMUP; type: biochemical; settings: reference compound, QA/QC; read-out: Ref Kj
Chain of Protein Phosphatase, PP2A (P67775 whole entry): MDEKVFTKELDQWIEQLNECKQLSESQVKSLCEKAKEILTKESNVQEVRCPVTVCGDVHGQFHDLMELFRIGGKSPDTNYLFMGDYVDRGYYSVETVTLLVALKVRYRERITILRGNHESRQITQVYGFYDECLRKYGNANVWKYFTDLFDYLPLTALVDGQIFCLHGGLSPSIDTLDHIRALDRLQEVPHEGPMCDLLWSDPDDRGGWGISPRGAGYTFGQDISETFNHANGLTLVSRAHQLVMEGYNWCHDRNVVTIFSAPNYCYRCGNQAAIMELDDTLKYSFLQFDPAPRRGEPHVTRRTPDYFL

[25] = target: Potassium Channel, Ca2+ Act., VS; assay: Potassium Channel, Ca2+ Act., VS; [125I]Charybdotoxin; type: binding; settings: reference compound, QA/QC; read-out: Ref Kj
[26] = target: Neurokinin, NK1; type: binding; settings: read-out: Ref Kj
[27] = target: Vasoactive Intestine Peptide, Non-selective; type: binding; settings: read-out: Ref Kj
[28] = target: Calcium Channel, Type N; type: binding; settings: read-out: Ref Kj

Compound: O=[N+]([O-])c1ccc(CSc2ncnc3c2ncn3[C@@H]2O[C@H](CO)[C@@H](O)[C@H]2O)cc1 [NBTI]
- Ki [1]: 0.331 nM

Compound: CN[C@H](CC(=O)O)C(=O)O [NMDA]
- Ki [2]: 13.1 µM

Compound: CCCCC[C@@H](O)/C=C/[C@H]1C[C@H]2C[C@@H]([C@@H]1C/C=C\CCCC(=O)O)C2(C)C [Pinane-thromboxane A2]
- Ki [4]: 30.3 nM

Compound: CCCN1CCC[C@H](c2cccc(O)c2)C1 [R(+)-3-PPP HCl]
- Ki [5]: 1.27 nM

Compound: NCCNC(=O)c1ncsc1-c1cccc(F)c1 [Ro 41-1049 HCl]
- Ki [6]: 1.08 nM

Compound: C[C@H](N)C(=O)NCC(=O)N[C@H]1CSSC[C@@H](C(=O)O)NC(=O)[C@H](CO)NC(=O)[C@H]([C@@H](C)O)NC(=O)[C@H](Cc2ccccc2)NC(=O)[C@H]([C@@H](C)O)NC(=O)[C@H](CCCCN)NC(=O)[C@H](Cc2c[nH]c3ccccc23)NC(=O)[C@H](Cc2ccccc2)NC(=O)[C@H](Cc2ccccc2)NC(=O)[C@H](CC(N)=O)NC(=O)[C@H](CCCCN)NC1=O [Somatostatin]
- Ki [7]: 0.768 nM

Compound: C[C@H]1[C@H](C)CC[C@]2(C(=O)O)CC[C@]3(C)C(=CC[C@@H]4[C@@]5(C)CC[C@H](O)C(C)(C)[C@@H]5CC[C@]43C)[C@H]12 [Ursolic Acid]
- Ki [8]: 2320 nM

Compound: Cc1[nH]cnc1CCC(=O)c1cn(C)c2ccccc12 [[^3H]-GR65630]
- Kd [9]: 0.35 nM

Compound: COC(=O)[C@H]1[C@@H](c2ccc(F)cc2)C[C@@H]2CC[C@H]1N2C [[^3H]-WIN 35-428]
- Kd [10]: 28 nM

Compound: C[N+](C)(C)CCC(=O)c1ccc2ccccc2c1 [beta-NETA]
- Ki [11]: 425 nM

Compound: (3MeHis2) TRH
- Ki [12]: 175 nM

Compound: (+)-MK-801 HMaleate
- Ki [13]: 2.33 nM
- Ki [14]: 8.96 nM

Compound: (Phe)(Me)2A6,8,L9AVP
- Ki [15]: 0.128 nM

Compound: Ammonium Molybdate
- Ki [16]: 90.5 µM
- Ki [17]: 313 nM
- Ki [18]: 30.9 nM
- Ki [19]: 117 nM
- Ki [20]: 41.3 nM

Compound: Angiotensin II (Human)
- Ki [21]: 0.578 nM

Compound: CCK-8 (sulfated)
- Ki [22]: 0.0228 nM
- Ki [23]: 0.479 nM

Compound: Calyculin
- Ki [24]: 0.722 nM

Compound: Charybdotoxin
- Ki [25]: 0.204 nM

Compound: Substance P
- Ki [26]: 13 nM

Compound: VIP
- Ki [27]: 1.9 nM

Compound: w-Conotoxin GVIA
- Ki [28]: 0.0124 nM
